The subject of this experiment is mGluR2. The note with it: monkey thalamus, compound 2 0.5 mg/kg iv 10 min before tracer.

As to `Cc1c(OCc2cccc(-c3ccc(C(=O)O)cc3)c2)cc2c(c1C)C(=O)C(C1CCCC1)C2` (stereo not shown) [Compound 2, Biphenyl-indanone A], the “enhancement of [18F]9 Logan VT after pretreatment” value is on record as ~ 3.3%.

Source of the values: paper PMC9434700 (Journal of medicinal chemistry, 2022).
